# Measurements reported in US11739252B2, “Microbecidal composition and a method for mitigating internal microbiological influenced corrosion in petroleum transporting pipelines” (Indian Oil Corporation Limited, priority 2020, dated 2023).
# System: MIC causing microbes
# Assay: Synergistic effect of components: antimicrobial screening against MIC causing microbes and their mediated corrosion
# Assay type: cell-based
# Conditions: dosed at 10000 ppm
# Description: To test the MIC activity, the microbecidal composition was subjected to antimicrobial screening against MIC causing microbes and their mediated corrosion. 10 gram of muck sample from a pipeline having MIC was used as inoculum. The growth of the microbes was followed by visual observation as well as by counting the CFU/ml on respective media. The growth was compared with control i.e., without microbecidal composition. Further, individual components of the microbecidal composition were evaluated to evaluate the synergistic effect of the composition (Table 1). As observed from the Table-1 below, when the individual components of the microbecidal composition was used, no significant MIC reduction was observed.
structure (smiles),measurement,setting,value
CCO [Alcohol],Percentage (%) reduction in MIC,base corrosion rate 12 mpy,10%
same,After dosing of Microbecidal composition (mpy),"base corrosion rate without composition 12 mpy, muck sample inoculum",10.75 mpy
